Measured values taken from patent EP4741391A1, “NMT INHIBITOR, AND PREPARATION METHOD THEREFOR AND USE THEREOF” (Nanjing Synnocare Pharmaceutical Technology Co., Ltd., priority 2023, dated 2025).

Legend:
[1] = biological target: T1, NMT1 enzyme (Homo sapiens, UniProt P30419); assay: Inhibitory activity on NMT1 enzyme catalysis (fluorescence intensity, CPM probe); assay type: biochemical; settings: 6 nM NMT1 enzyme, 1.25 µM myristoyl-CoA, 20 µM HSPP60 SRC peptide, 45 minutes at 25 °C
T1 sequence (P30419 1-496): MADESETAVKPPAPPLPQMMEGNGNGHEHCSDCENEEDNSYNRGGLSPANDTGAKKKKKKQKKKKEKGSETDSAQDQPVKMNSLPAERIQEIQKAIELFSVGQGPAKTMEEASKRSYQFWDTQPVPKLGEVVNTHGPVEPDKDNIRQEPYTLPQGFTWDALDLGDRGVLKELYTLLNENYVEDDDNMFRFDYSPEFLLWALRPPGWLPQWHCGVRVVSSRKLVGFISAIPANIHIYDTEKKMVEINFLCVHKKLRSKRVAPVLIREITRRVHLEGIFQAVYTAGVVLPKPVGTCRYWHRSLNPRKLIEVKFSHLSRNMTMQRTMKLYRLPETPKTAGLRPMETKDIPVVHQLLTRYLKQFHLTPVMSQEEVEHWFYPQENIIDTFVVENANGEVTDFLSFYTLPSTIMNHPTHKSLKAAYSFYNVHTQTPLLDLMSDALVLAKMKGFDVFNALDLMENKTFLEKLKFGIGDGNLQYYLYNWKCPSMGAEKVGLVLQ
Description: This study evaluated the ability of the compounds of the invention to inhibit NMT1 catalytic activity in vitro. The experiment used a FI (Fluorescence Intensity) analysis method, characterizing NMT1 inhibitors under conditions of 1.25 µM myristoyl-CoA (Lithium salt, Sigma, M4414). In this experiment, a synthesized peptide with the sequence H-Gly-Ser-Asn-Lys-Ser-Lys-Pro-Lys-NH2, HSPP60SRC (Nanjing Peptide Industry, NJP23953), was used as the reaction substrate. The final concentration of the NMT1 enzyme was 6 nM, the final concentration of CPM (Reactive thiol fluorescence probe, Invitrogen, D346) was 1 µM, the final concentration of HSPP60 SRC was 20 µM, and the final concentration of DMSO was 0.5%.
Compounds were dissolved in DMSO to obtain 10 mM stock solutions. Dose-response solutions were prepared with a top endpoint compound concentration of 3 mM, followed by three-fold serial dilutions in DMSO, totaling ten data points. Using an ECHO acoustic liquid handler (BECKMAN, ECHO 655 system), 0.05 µL of the diluted compound solutions was transferred to a 384-well assay plate (Corning, CLS4514). Then, 2.5 µL of the NMT1 enzyme working solution was added to the 384-well assay plate, followed by incubation at 25 °C for 10 minutes. Subsequently, 5 µL of the CPM and myristoyl-CoA working solution was added, the plate was centrifuged at 1000 rpm for 1 minute, and then 2.5 µL of the HSPP60 SRC working solution was added to initiate the reaction. The reaction was incubated at 25 °C for 45 minutes. The FI signal ([…]; ex: 405 nm) was detected using an HTS high-throughput screening multifunctional microplate reader (BMG, PHERA star FSX).
The inhibition rate of the compounds on NMT1 enzyme catalytic activity was calculated using the following formula: Inhibition Percentage (%) = 100 * (Mean of DMSO group - Mean of Compound group) / (Mean of DMSO group - Mean of Blank control group). The IC50 curve of the compounds was fitted using the software XLfit 5.5.0 according to the nonlinear regression equation. Table 1 provides the inhibitory activity of the compounds of the invention on NMT1 enzyme catalysis.

[2] = system: MV-4-11 cells; assay: Anti-proliferative activity against MV-4-11 cells (three-day cell viability chemiluminescence); assay type: cell-based; settings: Homo sapiens, MV4-11, 72 h, MV-4-11 human monocytic leukemia cells, three days of exposure
Description: This study utilized a cell proliferation assay to analyze the cytotoxicity of MV-4-11 human monocytic leukemia cells after three days of exposure to NMT1 inhibitors. The MV-4-11 cell line was purchased from Nanjing Cobuilder Biotechnology Co., Ltd., and cultured in IMDM medium (Viva cell) in an incubator (Thermo) at 37 °C with 5% CO2. In this experiment, NMT1 inhibitors were dissolved in DMSO to obtain 600 µM stock solutions. Dose-response solutions were prepared with a top endpoint compound concentration of 3 µM, followed by three-fold serial dilutions in DMSO, totaling eight data points. The final concentration of DMSO was 0.5%.
MV-4-11 cells were seeded into a white 96-well plate, 80 µL of cell suspension per well, containing 6000 MV-4-11 cells. The cell plate was placed in the CO2 incubator for overnight culture. Then, 20 µL of NMT1 inhibitor solutions at different concentrations were added to the wells. The 96-well plate was placed back into the incubator for three days. Another cell plate was prepared, and the signal was read on the day of drug addition to serve as the maximum value (Max value in the equation below) for data analysis. To this cell plate, 25 µL of cell viability chemiluminescence detection reagent was added per well, followed by incubation at room temperature for 10 minutes to stabilize the luminescence signal. A multi-label analyzer was used for reading.
The raw data were converted into inhibition rates using the equation (Sample - Min) / (Max - Min) * 100%. The IC50 values were then determined by fitting a four-parameter curve (using the "log(inhibitor) vs. response - Variable slope" model in GraphPad Prism). Min: wells treated with 0.5% DMSO; Max: Day 0 wells. Table 1 provides the inhibitory activity of the compounds of the invention on MV-4-11 cell proliferation. Table 1: Compound Inhibitory Activity against NMT1 Enzyme (IC50) and Anti-proliferative Activity against MV-4-11 Cells (IC50)

Structure (SMILES) | IC50 [1] | IC50 [2]
CNCc1cnn2ccc(-c3ccc(Cl)cc3OCCc3c(C(=O)N(C)C)nn(C)c3C)cc12 [Compound 2, 4-{2-[(5-chloro-2-{3-[(methylamino)methyl]pyrazolo[1,5-a]pyridin-5-yl}phenyl)oxy]ethyl}-1,5,N,N-tetramethyl pyrazole-3-carboxamide] | 2.13 nM | 23.4 nM
Cc1c(CCOc2cc(Cl)ccc2-c2ccn3ncc(CN)c3c2)c(C(=O)N(C)C)nn1C [Compound 3, 4-[2-({2-[3-(aminomethyl)pyrazolo[1,5-a]pyridin-5-yl]-5-chlorophenyl}oxy)ethyl]-1,5,N,N-tetramethylpyrazole-3-carboxamide] | 3.45 nM | 41.2 nM
CNCc1cnn2ccc(-c3ccc(F)c(F)c3OCCc3c(C(C)O)nn(C)c3C)cc12 (stereo not shown) [Compound 31, 1-(4-{2-[(2,3-difluoro-6-{3-[(methylamino)methyl]-pyrazolo[1,5-a]pyridin-5-yl}phenyl)oxy]ethyl}-1,5-dimethylpyrazol-3-yl)ethan-1-ol] | 1.82 nM | 
CNCc1cnn2ccc(-c3ccc(F)cc3OCCc3c(C(O)C(C)(C)C)nn(C)c3C)cc12 (stereo not shown) [Compound 34, 1-(4-{2-[(5-fluoro-2-{3-[(methylamino)methyl]pyrazolo[1,5-a]pyridin-5-yl}phenyl)oxy]ethyl}-1,5-dimethylpyrazol-3-yl)-2,2-dimethylpropan-1-ol] | 1.93 nM | 
CNCc1cnn2ccc(-c3ccc(F)cc3OCCc3c(C(O)C(C)C)nn(C)c3C)cc12 (stereo not shown) [Compound 36, 1-(4-{2-[(5-fluoro-2-{3-[(methylamino)methyl]pyrazolo[1,5-a]pyridin-5-yl}phenyl)oxy]ethyl}-1,5-dimethylpyrazol-3-yl)-2-methylpropan-1-ol] | 1.96 nM | 

Next, values leading:

IC50 [1] | IC50 [2] | Structure (SMILES)
1.77 nM | 17.1 nM | Cc1c(CCOc2cc(Cl)ccc2-c2ccn3ncc(CN(C)C)c3c2)c(C(=O)N(C)C)nn1C [Compound 1, 4-{2-[(5-chloro-2-{3-[(dimethylamino)methyl]-pyrazolo [1,5-a]pyridin-5-yl}phenyl)oxy]ethyl}-1,5,N,N-tetramethylpyrazole-3-carboxamide]
1.65 nM | 11.4 nM | Cc1c(CCOc2cc(F)ccc2-c2ccn3ncc(CN(C)C)c3c2)c(C(=O)N(C)C)nn1C [Compound 4, 4-{2-[(2-{3-[(dimethylamino)methyl]pyrazolo[1,5-a]pyridin-5-yl}-5-fluorophenyl)oxy]ethyl} -1 ,5,N,N-tetrameth ylpyrazole-3-carboxamide]
1.74 nM | 11.8 nM | Cc1c(CCOc2c(F)cccc2-c2ccn3ncc(CN(C)C)c3c2)c(C(=O)N(C)C)nn1C [Compound 5, 4-{2-[(6-{3-[(dimethylamino)methyl]pyrazolo[1,5-a]pyridin-5-yl}-2-fluorophenyl)oxy]ethyl} -1 ,5,N,N-tetrameth ylpyrazole-3-carboxamide]
1.7 nM |  | CNCc1cnn2ccc(-c3ccc(F)c(F)c3OCCc3c(C(C)(C)O)nn(C)c3C)cc12 [Compound 29, 2-(4-{2-[(2,3-difluoro-6-{3-[(methylamino)methyl]-pyrazolo[1,5-a]pyridin-5-yl}phenyl)oxy]ethyl}-1,5-dimethylpyrazol-3-yl)propan-2-ol]
1.62 nM |  | CNCc1cnn2ccc(-c3ccc(F)c(F)c3OCCc3c(C(O)C(C)(C)C)nn(C)c3C)cc12 (stereo not shown) [Compound 30, 1-(4-{2-[(2,3-difluoro-6-{3-[(methylamino)methyl]-pyrazolo[1,5-a]pyridin-5-yl}phenyl)oxy]ethyl}-1,5-dimethylpyrazol-3-yl)-2,2-dimethylpr opan-1-ol]
1.71 nM |  | CNCc1cnn2ccc(-c3ccc(F)c(F)c3OCCc3c(C(O)C(C)C)nn(C)c3C)cc12 (stereo not shown) [Compound 32, 1-(4-{2-[(2,3-difluoro-6-{3-[(methylamino)methyl]pyrazolo[1,5-a]pyridin-5-yl}phenyl)oxy]ethyl}-1,5-dimethylpyrazol-3-yl)-2-methylpropan-1-ol]
